# Test results as given in US9315545B2, “Hepcidin mimetic peptides and uses thereof” (MERGANSER BIOTECH, INC., priority 2014, dated 2016).
# Entries after “also recorded” stand apart in the source; their conditions may differ.
# Tests used:
# [1] = assay type: physicochemical
# Procedure: An additional critical aspect in drug delivery is retention of solubility with time (physical stability), especially under refrigerated conditions. […] Unexpectedly, clear differences in physical stability were observed between Compound 5 and other compounds with only minor changes in sequence (e.g. Compounds 7 and 8). The combination of unexpected solubility of greater than 100 mg/mL in mildly acidic conditions and lack of significant changes in solution character after refrigeration, are unexpected and advantageous for a pharmaceutical product.
# serum iron = test: Serum iron reduction after subcutaneous administration in the rat (hepcidin mimetic activity); assay type: in vivo; conditions: 7.5 mg/kg
# Procedure: (§1) Compounds 1-4 were tested in rats to determine compound pharmacokinetics and hepcidin mimetic activity in vivo as measured by serum iron reduction. The effectiveness of the compounds for serum iron reduction should correlate with the treatment of iron metabolism disorders. Individual compounds, in this example and the following examples were generally formulated in DSPE-PEG(2000) (SUNBRIGHT® DSPE-020CN, NOF America Corporation) (30 mg/mL) and dosed subcutaneously at a compound dose of 7.5 mg/kg.
# (§2) The compound was prepared according to the following typical preparation. The dosing solution was prepared (7.5 mg compound/mL in clear solution) by weighing the compound into vial and an aliquot of ethanol is added into the vial and mixture vortexed. DSPE-020CN was added and the solution was vortexed, and, if necessary, the mixture was heated at 37° C. for 10-15 minutes to fully dissolve the DSPE-020CN. The ethanol was evaporated with nitrogen gas stream for 1-3 hours. Sterile water was then added and the mixture was vortexed or, if necessary, sonicated to give a clear solution.
# Serum iron was measured during the 24 h following subcutaneous administration in a rat of Compounds 1-4 and is summarized in FIG. 1. […] The observed effects on serum iron were unexpectedly similar in Compounds 1-3 despite the differences at Cysteine 7 and the differences in blood levels of the compounds (Table 7).
# physchem = assay type: physicochemical
# Procedure: Different solvent compositions with different properties that are commonly used as a basis for pharmaceutical compositions were added to known quantities of the indicated compound and mixed. If a clear solution was not obtained, additional solvent was added and the solution mixed. […] For example “50-100” would indicate that the compound was not soluble at 100 mg/mL but upon additional solvent to have a final concentration of 50 mg/mL, the compound was soluble.
# [2] = Compound blood levels after subcutaneous administration in the rat (LC/MS); assay type: in vivo; conditions: in vivo, sc, 7.5 mg/kg
# Procedure: as §1, §2
# After subcutaneous injection compound quantities in blood were measured over the subsequent 24 hours via LC/MS.
# [3] = In vitro stability of compounds in rat plasma (37° C.); assay type: in vitro ADME
# Procedure: The in vitro stability of Compounds 1-4 in rat plasma at 37° C. was examined to give an indication of stability in a whole animal model (Table 6).
# [4] = assay type: physicochemical; conditions: HCl (0.01%), 40° C.
# [5] = assay type: physicochemical; remark: listed apart in the source
# Procedure: Compound 5, which has the same disulphide block of the reactive cysteine as Compound 2 was also evaluated in stability studies over a 4 week period in 50 mM Na Acetate pH 5 at different temperatures.
structure (smiles),measurement,setting,value
CCCCCCCCCCCCCCCCNC(=O)CN(CC(N)=O)C(=O)CCCCCNC(=O)C(Cc1c[nH]c2ccccc12)NC(=O)C(CCCNC(=N)N)NC(=O)C(CSSC)NC(=O)C(CCCNC(=N)N)NC(=O)C1CCCN(C(=O)C(NC(=O)C(Cc2c[nH]cn2)NC(=O)C(NC(=O)CNCC(=O)O)C(C)O)C(c2ccccc2)c2ccccc2)C1 (stereo not drawn) [Compound 5],physical stability under refrigerated conditions (in words),[1],no changes in solution solubility or solution characteristics
same,duration of serum iron reduction compared with Compound 2,serum iron,longer effect
same,reduction in serum iron (in words),serum iron,retained significant hepcidin activity; also recorded: comparable activity
same,solubility characteristics compared to the other compounds (in words),physchem,unexpectedly superior solubility characteristics
same,solubility,"physchem; Solubility (mg/mL) at Ambient Temperature, 30% PEG 400",50 to 100 mg/mL
same,solubility,"physchem; Solubility (mg/mL) at Ambient Temperature, 50% EtOH/water",> 100 mg/mL
same,solubility,"physchem; Solubility (mg/mL) at Ambient Temperature, Water",> 100 mg/mL
same,solubility,"physchem; pH 2.3, Solubility (mg/mL) at Ambient Temperature, 10% Tween 80 pH 2.3-2.8",> 200 mg/mL
same,solubility,"physchem; pH 2.7, Solubility (mg/mL) at Ambient Temperature, 50% propylene glycol, pH 2.7",50 to 100 mg/mL
same,change of solubility with pH (in words),physchem; pH 4,no such significant change in solubility with pH
same,solubility,"physchem; pH 4.5, Solubility (mg/mL) at Ambient Temperature, 10% Tween 80 pH 4.5-5.0",> 100 mg/mL
same,solubility,"physchem; pH 5, Solubility (mg/mL) at Ambient Temperature, 2% Tween 80 pH 5",> 100 mg/mL
same,solubility,"physchem; pH 5.5, Solubility (mg/mL) at Ambient Temperature, 10% Tween 80 pH 5.5-6.0",> 100 mg/mL
same,solubility,"physchem; pH 6.4, Solubility (mg/mL) at Ambient Temperature, 2% Tween pH 6.4",> 44 mg/mL
same,solubility,physchem; solubility in mildly acidic conditions,> 100 mg/mL
same,blood levels of the dosed compound (in words),[2],surprisingly higher blood levels relative to the other compounds
same,"in vitro plasma stability, comparison in words",[3],even greater than that for Compound 2
same,"% Purity, Day 0",[4]; day 0,97.1%
same,"% Purity, Day 7",[4]; day 7,96.8%
same,"% Purity, Week 0, 2-8° C.","[5]; 50 mM NaAcetate pH 5, week 0, 2-8° C.",96.9%
same,"% Purity, Week 0, 25° C.","[5]; 50 mM NaAcetate pH 5, week 0, 25° C.",96.9%
same,"% Purity, Week 1, 2-8° C.","[5]; 50 mM NaAcetate pH 5, week 1, 2-8° C.",96.8%
same,"% Purity, Week 1, 25° C.","[5]; 50 mM NaAcetate pH 5, week 1, 25° C.",96.8%
same,"% Purity, Week 2, 2-8° C.","[5]; 50 mM NaAcetate pH 5, week 2, 2-8° C.",96.8%
same,"% Purity, Week 2, 25° C.","[5]; 50 mM NaAcetate pH 5, week 2, 25° C.",96.3%
same,"% Purity, Week 4, 2-8° C.","[5]; 50 mM NaAcetate pH 5, week 4, 2-8° C.",96.7%
same,"% Purity, Week 4, 25° C.","[5]; 50 mM NaAcetate pH 5, week 4, 25° C.",96.1%
